The numbers were not newly measured in patent US7270977B2, “Polypeptides for identifying fungicidally active compounds” (priority 2001, dated 2007), which cites them from elsewhere.

Entries after “also recorded” stand apart in the source; their conditions may differ.

In data set [1] the test system is Candida pseudotropicalis. To be noted: in words; cited from earlier work.
The test system of data set [2] is Candida krusei. Conditions: in words; cited from earlier work.
Data set [3] deals with Hansenula anomala. To be noted: in words; cited from earlier work.
Data set [4] relates to S. cerevisiae. Conditions: in words; cited from earlier work.
For data set [5], the target named is recombinant IMPDH from Pneumocystis carinii (Pneumocystis carinii, UniProt Q12658). To be noted: recombinant P. carinii IMPDH; read-out: concentration resulting in 50% inhibition of the activity of the recombinant IMPDH; cited from earlier work.
recombinant IMPDH from Pneumocystis carinii, sequence (Q12658 76-529): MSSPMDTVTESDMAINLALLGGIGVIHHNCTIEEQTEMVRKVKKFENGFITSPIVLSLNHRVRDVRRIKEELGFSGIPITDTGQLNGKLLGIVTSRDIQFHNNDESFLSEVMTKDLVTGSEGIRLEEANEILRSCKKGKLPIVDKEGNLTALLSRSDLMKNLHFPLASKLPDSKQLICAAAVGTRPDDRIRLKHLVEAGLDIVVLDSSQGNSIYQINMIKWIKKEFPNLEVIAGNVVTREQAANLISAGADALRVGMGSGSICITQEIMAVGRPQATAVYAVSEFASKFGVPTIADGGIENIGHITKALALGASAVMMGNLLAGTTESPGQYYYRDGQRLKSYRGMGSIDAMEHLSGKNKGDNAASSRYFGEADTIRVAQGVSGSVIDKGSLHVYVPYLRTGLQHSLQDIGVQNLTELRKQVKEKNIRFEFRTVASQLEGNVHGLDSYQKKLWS
In data set [6] the test system is Cryptococcus neoformans. To be noted: in words; cited from earlier work.
Data set [7] concerns C. albicans cells. Conditions: cited from earlier work; for effect on C. albicans: in words.
Data set [8] deals with Candida guilliermondii. To be noted: in words; cited from earlier work.

In the case of `COc1c(C)c2c(c(O)c1C/C=C(\C)CCC(=O)O)C(=O)OC2` [mycophenolic acid], the “effect on growth in vitro” value in data set [1] is reported as “ineffective”; in data set [2], “ineffective”; in data set [3] it was “ineffective”; in data set [4], “ineffective; also recorded: no effect”; in data set [6], “inhibits in vitro the growth”; in data set [8], “ineffective”. Also, in data set [5], the IC50 is 25 µM. The “effect on C. albicans” value in data set [7] is given as “inhibits in vitro the growth; also recorded: acts fungistatically”. For the same molecule, in data set [7] (wild-type cells), the “concentration inhibiting growth of C. albicans cells” value was 1 µg/mL.

For `NC(=O)c1ncn([C@@H]2O[C@H](CO)[C@@H](O)[C@H]2O)c1O` [mizoribine], the “effect on C. albicans” value in data set [7] is reported as “virtually ineffective”.
